US11173156B2, “Solid forms of a kynurenine-3-monooxygenase inhibitor” (CHDI Foundation, Inc., priority 2019, dated 2021)
Like-named read-outs stand apart in the source and are kept apart here.

Tests used:
Assay type in all cases: physicochemical
[1] = Deliquescence of salts/co-crystals during exposure to 75% RH; settings: ambient temperature, 3 day exposure, visual
Description: The salts identified from the salt/co-crystal screen of Compound I (see section 4 above) were assessed visually for deliquescence during exposure to 75% RH at ambient temperature (Table 5). […] The materials from these experiments were recovered and re-analyzed by XRPD to determine if changes in solid form occurred.

[2] = Approximate aqueous solubility of salts/co-crystals (visual, solvent addition method); settings: water; for solubility: estimated visually, solvent addition method
Description: A weighed sample was treated with aliquots of the test solvent at room temperature. The mixture was sonicated between additions to facilitate dissolution. Complete dissolution of the test material was determined by visual inspection. Solubility was estimated based on the total solvent used to provide complete dissolution. Some samples were then heated and observed visually for complete dissolution. The actual solubility may be greater than the value calculated because of the use of solvent aliquots that were too large or due to a slow rate of dissolution. […] If complete dissolution was achieved as a result of only one aliquot addition, the solubility is expressed as “greater than.”

[3] = Dynamic vapor sorption/desorption (DVS); settings: for material recovered from the DVS analysis compared with starting material by XRPD: after DVS; for DVS weight loss: from about 95% to about 5% RH
Description: Moisture sorption/desorption data were collected on a VTI SGA-100 Vapor Sorption Analyzer. NaCl and PVP were used as calibration standards. Samples were not dried prior to analysis. Sorption and desorption data were collected over a range from 5% to 95% RH at 10% RH increments under a nitrogen purge. The equilibrium criterion used for analysis was less than 0.0100% weight change in 5 minutes with a maximum equilibration time of 3 hours. Data were not corrected for the initial moisture content of the samples.

[4] = Slurry experiments (form stability)
Description: Solutions were prepared by adding enough solids to a given solvent so that excess solids were present. The mixture was then agitated in a sealed vial at either ambient or an elevated temperature. After a given amount of time, the solids were isolated for analysis.
The formation and stability of solid forms of the sodium salt of Compound I was further evaluated via slurry experiments. The slurries were formed by combining Compound I sodium Pattern A and a solvent, and allowing the slurry to equilibrate at room temperature. If a free flowing slurry was not achieved, an additional amount of the respective solvent was added before the room temperature equilibration step. All slurries were isolated via centrifuge filtration after five days and twelve days of equilibration. The solids were analyzed by XRPD to check for pattern conversion (Table 13).

[5] = Stability at elevated temperatures (XRPD, HPLC)
Description: The stability of Compound I sodium Patterns A, C, and D and Form B, at about 60° C. was evaluated. These forms were weighed into vials covered with a Kimwipe tissue and stored in an oven at 60° C. and ambient pressure. After three days and ten days of exposure, the solids were analyzed by XRPD to check for form conversion. […].

Row | SMILES | Observation (deliquescence) [1] | aqueous solubility (in words) [2] | solubility [2] | hygroscopicity by DVS analysis (in words) [3] | DVS weight loss upon equilibration at about 5% RH [3] | material recovered from the DVS analysis compared with starting material by XRPD [3] | DVS weight gain ([3]; from about 5 to about 95% RH) | DVS weight loss [3] | other results
1 | O=C(O)c1cc(-c2ccc(OC3CC3)c(Cl)c2)ncn1 (racemic) [Compound I lysine Material A, 6-(3-chloro-4-cyclopropoxyphenyl)pyrimidine-4-carboxylic acid] | no deliquescence | – | – | – | – | – | – | – | solubility ([2]; thermodynamic from solid, read-out: Solubility): < 4 mg/mL; aqueous solubility (in words) ([2]; listed as Compound I lysine material A): poor low aqueous solubility
2 | O=C(O)c1cc(-c2ccc(OC3CC3)c(Cl)c2)ncn1 [Compound I diethylamine Material A, 6-(3-chloro-4-cyclopropoxyphenyl)pyrimidine-4-carboxylic acid] | no deliquescence | desirable aqueous solubility | ~30 mg/mL | hygroscopic | about 0.08% | substantially the same as the starting material | ~2.12% | ~1.92% | solubility ([2]; listed as Diethylamine A): >30 mg/mL; gain observed by DVS analysis ([3]; sorption cycle): ~2 wt %
3 | O=C(O)c1cc(-c2ccc(OC3CC3)c(Cl)c2)ncn1 (racemic) [Compound I arginine Material A, 6-(3-chloro-4-cyclopropoxyphenyl)pyrimidine-4-carboxylic acid] | – | – | – | – | – | – | – | – | aqueous solubility (in words) ([2]; listed as Compound I Arginine Material A): suitable aqueous solubility
4 | O=C(O)c1cc(-c2ccc(OC3CC3)c(Cl)c2)ncn1 [Compound I ethanolamine Material A, 6-(3-chloro-4-cyclopropoxyphenyl)pyrimidine-4-carboxylic acid] | no deliquescence | poor low aqueous solubility | – | – | – | – | – | – | solubility ([2]; listed as Ethanolamine A): <4 mg/mL
5 | O=C(O)c1cc(-c2ccc(OC3CC3)c(Cl)c2)ncn1 [Compound I sodium Pattern C, 6-(3-chloro-4-cyclopropoxyphenyl)pyrimidine-4-carboxylic acid] | – | – | – | slightly hygroscopic | – | substantially the same as the starting material | – | – | form conversion in slurry / trituration ([4]; acetone and/or isopropanol (trituration, single form or competitive slurry)): converted to Compound I sodium Form B; relative stability of the form (in words) ([4]; at the conditions evaluated): not stable; time stable in slurry ([4]; methanol): about 10 days; form conversion in slurry / trituration ([4]; solvent systems with high water activity): covert to Compound I sodium Form E; chemical and physical form changes after storing at elevated temperature ([5]; about 60° C.): No chemical and physical form changes were observed; HPLC ([5]; after storage at 60 ° C. (time point not given)): >99.9 % AUC; DVS weight gain ([3]; at 60% RH): about 1.9%; DVS weight gain ([3]; at 90% RH): about 8.4%
6 | O=C(O)c1cc(-c2ccc(OC3CC3)c(Cl)c2)ncn1 [Compound I tromethamine Form A, 6-(3-chloro-4-cyclopropoxyphenyl)pyrimidine-4-carboxylic acid] | no deliquescence | desirable aqueous solubility | ~134 mg/mL | not hygroscopic | about 0.01% | substantially the same as the starting material | ~0.25% | ~0.26% | solubility ([2]; listed as Tromethamine A): >134 mg/mL
7 | O=C(O)c1cc(-c2ccc(OC3CC3)c(Cl)c2)ncn1 [Compound I meglumine Material A, 6-(3-chloro-4-cyclopropoxyphenyl)pyrimidine-4-carboxylic acid] | – | suitable aqueous solubility | – | – | – | – | – | – | –
8 | O=C(O)c1cc(-c2ccc(OC3CC3)c(Cl)c2)ncn1 [Compound I diethanolamine Form A, 6-(3-chloro-4-cyclopropoxyphenyl)pyrimidine-4-carboxylic acid] | no deliquescence | desirable aqueous solubility | above 260 mg/mL | not hygroscopic | about 0.2% | substantially the same as the starting material | ~0.48% | ~0.47% | –
